This note sets out measurements from patent US20240308976A1, “COMPOUNDS THAT MEDIATE PROTEIN DEGRADATION AND USES THEREOF” (Monte Rosa Therapeutics, Inc., priority 2021, published 2024).

In assay [1] the target is CRBN-DDB1 (Homo sapiens, UniProt Q96SW2). Briefly: Compound binding to CRBN by HTRF assay. Conditions: CRBN-DDB1 2.5 nM, Cy5-Thalidomide 100 nM, 30 min at ambient temperature; read-out: HTRF Class (Cereblon binding, HTRF IC50). In short, it runs like this: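 Cy5-thalidomide (100 nM) displacement from His-tagged CRBN-DDB1 (2.5 nM) read by terbium-cryptate HTRF (665/620 nm), in 20 mM HEPES, 20 mM NaCl, 0.2 mM TCEP, 0.2 mM EDTA, 0.005% Tween20. Compounds tested as 10-point 1:3 series, 30 min at ambient temperature. Signal normalised to DMSO and lenalidomide controls; IC50 fitted, Ki by Cheng-Prusoff.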

Assay [2] has as its target T1, GSPT1 (Homo sapiens, UniProt P15170+Q96SW2).
T1 construct: CAL-51 cells were purchased from DSMZ (cat. Number ACC302); host or cells: CAL-51
Briefly: Immunofluorescence assay for activity to degrade GSPT1 in CAL-51 cells. The format is cell-based. Conditions: 6 h treatment, read-out: IF Class (GSPT1 degradation, DC50). In short, it runs like this: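 CAL-51 cells treated 6 h with compound (30 μM to 0.1 nM), fixed, immunostained for GSPT1 with DAPI and phalloidin counterstains, imaged by high-content microscopy. Mean per-cell GSPT1 intensity normalized to controls; DC50 by non-linear regression.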

Chain of CRBN-DDB1 (Q96SW2 whole entry): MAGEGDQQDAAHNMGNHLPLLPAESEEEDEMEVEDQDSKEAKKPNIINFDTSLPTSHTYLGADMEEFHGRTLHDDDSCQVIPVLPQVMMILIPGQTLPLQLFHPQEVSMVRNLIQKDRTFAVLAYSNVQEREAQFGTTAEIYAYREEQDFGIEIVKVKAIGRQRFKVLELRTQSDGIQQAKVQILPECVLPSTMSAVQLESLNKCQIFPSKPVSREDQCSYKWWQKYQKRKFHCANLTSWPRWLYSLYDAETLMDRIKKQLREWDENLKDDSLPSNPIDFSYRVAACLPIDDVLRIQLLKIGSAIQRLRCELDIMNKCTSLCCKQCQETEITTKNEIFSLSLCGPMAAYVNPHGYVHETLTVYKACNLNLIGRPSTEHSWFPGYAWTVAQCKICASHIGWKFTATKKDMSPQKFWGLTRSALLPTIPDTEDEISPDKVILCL
Chain of CRBN-DDB1 (Q16531 whole entry partner): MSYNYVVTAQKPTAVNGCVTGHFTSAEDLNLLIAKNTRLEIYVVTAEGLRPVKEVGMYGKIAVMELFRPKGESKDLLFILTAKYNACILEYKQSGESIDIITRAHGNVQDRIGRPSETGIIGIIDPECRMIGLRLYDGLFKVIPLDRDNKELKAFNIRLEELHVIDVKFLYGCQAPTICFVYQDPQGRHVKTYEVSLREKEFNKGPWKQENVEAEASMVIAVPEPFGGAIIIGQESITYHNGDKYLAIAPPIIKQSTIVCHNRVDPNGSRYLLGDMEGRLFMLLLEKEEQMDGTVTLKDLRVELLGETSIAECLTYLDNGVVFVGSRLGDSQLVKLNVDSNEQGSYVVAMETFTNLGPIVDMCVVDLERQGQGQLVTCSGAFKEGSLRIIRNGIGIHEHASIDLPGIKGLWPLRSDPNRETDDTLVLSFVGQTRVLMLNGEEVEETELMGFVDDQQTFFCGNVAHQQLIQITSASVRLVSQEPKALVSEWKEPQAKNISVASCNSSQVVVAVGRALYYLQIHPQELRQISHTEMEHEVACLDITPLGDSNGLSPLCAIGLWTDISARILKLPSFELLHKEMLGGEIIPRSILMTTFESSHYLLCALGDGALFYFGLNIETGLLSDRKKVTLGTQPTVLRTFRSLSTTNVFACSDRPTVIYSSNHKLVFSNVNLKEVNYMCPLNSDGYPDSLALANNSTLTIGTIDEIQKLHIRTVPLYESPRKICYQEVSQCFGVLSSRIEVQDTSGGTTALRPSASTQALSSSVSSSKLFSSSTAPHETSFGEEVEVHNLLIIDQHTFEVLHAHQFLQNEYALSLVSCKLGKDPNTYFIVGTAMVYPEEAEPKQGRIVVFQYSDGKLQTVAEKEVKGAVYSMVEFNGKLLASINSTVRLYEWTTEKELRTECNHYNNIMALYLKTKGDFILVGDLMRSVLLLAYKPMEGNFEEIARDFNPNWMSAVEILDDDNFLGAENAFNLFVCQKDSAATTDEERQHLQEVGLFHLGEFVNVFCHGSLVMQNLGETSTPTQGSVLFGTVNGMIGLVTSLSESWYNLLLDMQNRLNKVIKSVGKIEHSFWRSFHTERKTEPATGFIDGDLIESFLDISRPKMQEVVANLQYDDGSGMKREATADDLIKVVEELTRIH
T1 sequence (P15170 whole entry): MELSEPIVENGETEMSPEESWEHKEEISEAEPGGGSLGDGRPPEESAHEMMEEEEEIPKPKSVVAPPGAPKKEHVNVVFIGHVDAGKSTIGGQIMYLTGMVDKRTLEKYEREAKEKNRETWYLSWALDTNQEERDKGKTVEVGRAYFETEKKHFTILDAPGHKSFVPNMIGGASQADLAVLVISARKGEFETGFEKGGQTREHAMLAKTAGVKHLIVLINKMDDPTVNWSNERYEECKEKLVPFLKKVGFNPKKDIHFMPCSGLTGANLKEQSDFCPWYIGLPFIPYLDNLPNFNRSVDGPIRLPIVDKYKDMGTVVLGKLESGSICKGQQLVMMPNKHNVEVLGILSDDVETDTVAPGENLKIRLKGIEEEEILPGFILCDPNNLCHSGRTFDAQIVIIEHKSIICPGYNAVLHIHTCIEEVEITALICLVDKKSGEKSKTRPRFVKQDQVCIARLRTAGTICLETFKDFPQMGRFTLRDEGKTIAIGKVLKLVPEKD
T1 sequence (Q96SW2 whole entry): as the sequence (Q96SW2 whole entry) above
T1 sequence (Q16531 2-1140 partner limits assumed): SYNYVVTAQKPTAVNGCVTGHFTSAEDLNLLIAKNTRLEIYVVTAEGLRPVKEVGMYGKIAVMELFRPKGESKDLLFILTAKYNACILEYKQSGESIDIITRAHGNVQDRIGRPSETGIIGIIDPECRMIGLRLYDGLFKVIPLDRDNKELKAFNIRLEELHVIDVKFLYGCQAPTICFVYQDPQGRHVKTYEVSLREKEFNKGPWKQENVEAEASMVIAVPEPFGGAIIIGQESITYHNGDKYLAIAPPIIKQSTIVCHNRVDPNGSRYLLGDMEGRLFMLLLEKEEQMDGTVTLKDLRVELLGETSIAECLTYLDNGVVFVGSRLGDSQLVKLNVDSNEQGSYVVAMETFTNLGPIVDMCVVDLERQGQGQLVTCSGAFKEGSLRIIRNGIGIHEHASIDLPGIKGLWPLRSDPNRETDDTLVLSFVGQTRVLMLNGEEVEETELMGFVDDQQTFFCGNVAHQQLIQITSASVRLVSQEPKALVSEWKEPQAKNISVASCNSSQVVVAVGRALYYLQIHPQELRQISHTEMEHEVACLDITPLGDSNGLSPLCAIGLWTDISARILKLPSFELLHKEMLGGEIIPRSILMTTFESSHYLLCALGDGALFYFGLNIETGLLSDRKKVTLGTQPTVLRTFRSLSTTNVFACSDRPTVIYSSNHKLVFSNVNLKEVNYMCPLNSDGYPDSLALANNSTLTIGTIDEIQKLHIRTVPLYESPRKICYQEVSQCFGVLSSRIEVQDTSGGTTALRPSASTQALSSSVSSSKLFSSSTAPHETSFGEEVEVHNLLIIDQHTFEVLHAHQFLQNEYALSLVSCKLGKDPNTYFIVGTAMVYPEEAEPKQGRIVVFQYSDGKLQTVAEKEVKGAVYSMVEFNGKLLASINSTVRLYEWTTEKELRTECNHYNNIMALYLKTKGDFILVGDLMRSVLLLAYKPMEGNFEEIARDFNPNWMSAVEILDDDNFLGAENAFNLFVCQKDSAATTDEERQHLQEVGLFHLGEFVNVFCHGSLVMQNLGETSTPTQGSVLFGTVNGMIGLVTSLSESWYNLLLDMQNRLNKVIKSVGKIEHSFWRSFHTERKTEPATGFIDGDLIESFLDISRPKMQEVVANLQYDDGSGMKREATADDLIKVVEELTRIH

As a reminder, the IC50 is the concentration that gives 50% inhibition. What is called DC50 is the midpoint of the concentration-degradation curve. `O=C1CCC(c2c(F)cc(N3CC(OC(=O)NC4CC4)C3)cc2F)C(=O)N1` (centres unmarked) [Compound 86, 1-(4-(2,6-dioxopiperidin-3-yl)-3,5-difluorophenyl)azetidin-3-yl cyclopropylcarbamate]: in assay [1], the IC50 was in the range of 100 to 1000 nM. Further, in assay [2], the DC50 is above 300 nM.

Turning to `O=C1CCC(c2c(F)cc(N3CC(OC(=O)NCC(F)(F)F)C3)cc2F)C(=O)N1` (centres unmarked) [Compound 87, 1-(4-(2,6-dioxopiperidin-3-yl)-3,5-difluorophenyl)azetidin-3-yl (2,2,2-trifluoroethyl)carbamate], the IC50 in assay [1] was 100 to 1000 nM. Further, in assay [2], the DC50 is above 300 nM.

Turning to `O=C1CCC(c2c(F)cc(N3CC(OC(=O)NC4CC(F)(F)C4)C3)cc2F)C(=O)N1` (centres unmarked) [Compound 88, 1-(4-(2,6-dioxopiperidin-3-yl)-3,5-difluorophenyl)azetidin-3-yl(3,3-difluorocyclobutyl)carbamate], the IC50 in assay [1] was in the range of 100 to 1000 nM. The DC50 in assay [2] is above 300 nM.

With `CC(C)(C)NC(=O)OC1CN(c2cc(F)c(C3CCC(=O)NC3=O)c(F)c2)C1` (centres unmarked) [Compound 89, 1-(4-(2,6-dioxopiperidin-3-yl)-3,5-difluorophenyl)azetidin-3-yl tert-butylcarbamate], in assay [1], the IC50 was 100 to 1000 nM. In addition, the DC50 in assay [2] is above 300 nM.

Turning to `O=C1CCC(c2c(F)cc(N3CC(OC(=O)NC4CCC4)C3)cc2F)C(=O)N1` (centres unmarked) [Compound 90, 1-(4-(2,6-dioxopiperidin-3-yl)-3,5-difluorophenyl) azetidin-3-yl cyclobutylcarbamate], the IC50 in assay [1] lay within 100 to 1000 nM. In addition, in assay [2], the DC50 is above 300 nM.

As for `O=C1CCC(c2c(F)cc(N3CC(OC(=O)NCC4CCC4)C3)cc2F)C(=O)N1` (centres unmarked) [Compound 91, 1-(4-(2,6-dioxopiperidin-3-yl)-3,5-difluorophenyl)azetidin-3-yl (cyclobutylmethyl)carbamate], the half-inhibitory concentration (IC50) in assay [1] was 100 to 1000 nM. For the same compound, in assay [2], the DC50 is 30 to 300 nM.

Regarding `O=C1CCC(c2c(F)cc(N3CC(OC(=O)NC4CCCC4)C3)cc2F)C(=O)N1` (centres unmarked) [Compound 92, 1-(4-(2,6-dioxopiperidin-3-yl)-3,5-difluorophenyl)azetidin-3-yl cyclopentylcarbamate], in assay [1], the IC50 fell in the range of 100 to 1000 nM. Besides, in assay [2], the DC50 is above 300 nM.

Consider `CC1(C)CCC(NC(=O)OC2CN(c3cc(F)c(C4CCC(=O)NC4=O)c(F)c3)C2)CC1` (centres unmarked) [Compound 93, 1-(4-(2,6-dioxopiperidin-3-yl)-3,5-difluorophenyl)azetidin-3-yl (4,4-dimethylcyclohexyl) carbamate], for which the IC50 in assay [1] is at most 100 nM. Besides, the DC50 in assay [2] was at most 30 nM.

Regarding `O=C1CCC(c2c(F)cc(N3CC(OC(=O)NC4CCOCC4)C3)cc2F)C(=O)N1` (centres unmarked) [Compound 94, 1-(4-(2,6-dioxopiperidin-3-yl)-3,5-difluorophenyl)azetidin-3-yl (tetrahydro-2H-pyran-4-yl)carbamate], the IC50 in assay [1] was 100 to 1000 nM. In addition, the DC50 in assay [2] was above 300 nM.

As to `O=C1CCC(c2c(F)cc(N3CC(OC(=O)NC4COC4)C3)cc2F)C(=O)N1` (centres unmarked) [Compound 95, 1-(4-(2,6-dioxopiperidin-3-yl)-3,5-difluorophenyl)azetidin-3-yl oxetan-3-ylcarbamate], the IC50 in assay [1] lay within 100 to 1000 nM. In addition, the DC50 in assay [2] is above 300 nM.

Turning to `O=C1CCC(c2c(F)cc(N3CC(OC(=O)NCC4CC(F)(F)C4)C3)cc2F)C(=O)N1` (centres unmarked) [Compound 96, 1-(4-(2,6-dioxopiperidin-3-yl)-3,5-difluorophenyl)azetidin-3-yl ((3,3-difluorocyclobutyl)methyl)carbamate], in assay [1], the IC50 was in the range of 100 to 1000 nM. Further, the DC50 in assay [2] was in the range of 30 to 300 nM.

With `CC1(C)CC(NC(=O)OC2CN(c3cc(F)c(C4CCC(=O)NC4=O)c(F)c3)C2)C1` (centres unmarked) [Compound 97, 1-(4-(2,6-dioxopiperidin-3-yl)-3,5-difluorophenyl)azetidin-3-yl (3,3-dimethylcyclobutyl)carbamate], the IC50 in assay [1] was at most 100 nM. Moreover, in assay [2], the DC50 was at most 30 nM.

Consider `C[C@@H](NC(=O)OC1CN(c2cc(F)c(C3CCC(=O)NC3=O)c(F)c2)C1)c1ccccc1` (stereo partly drawn) [Compound 123, 1-(4-(2,6-dioxopiperidin-3-yl)-3,5-difluorophenyl)azetidin-3-yl((R)-1-phenylethyl)carbamate], for which the IC50 in assay [1] was at most 100 nM. In addition, the DC50 in assay [2] was at most 30 nM.

On to `C[C@H]1CC[C@H](NC(=O)OC2CN(c3cc(F)c(C4CCC(=O)NC4=O)c(F)c3)C2)CC1` (stereo partly drawn) [Compound 124, 1-(4-(2,6-dioxopiperidin-3-yl)-3,5-difluorophenyl)azetidin-3-yl((1R,4R)-4-methylcyclohexyl) carbamate], for which the IC50 in assay [1] is at most 100 nM. Moreover, the DC50 in assay [2] is at most 30 nM.

Take `CC(C)CCNC(=O)OC1CN(c2cc(F)c(C3CCC(=O)NC3=O)c(F)c2)C1` (centres unmarked) [Compound 125, 1-(4-(2,6-dioxopiperidin-3-yl)-3,5-difluorophenyl)azetidin-3-yl isopentylcarbamate]: the IC50 in assay [1] was in the range of 100 to 1000 nM. For the same compound, the DC50 in assay [2] was at most 30 nM.

As to `CC(C)(C)N1CC(NC(=O)OC2CN(c3cc(F)c(C4CCC(=O)NC4=O)c(F)c3)C2)C1` (centres unmarked) [Compound 126, 1-(4-(2,6-dioxopiperidin-3-yl)-3,5-difluorophenyl)azetidin-3-yl(1-(tert-butyl)azetidin-3-yl)carbamate], the IC50 in assay [1] was at most 100 nM. For the same compound, the DC50 in assay [2] was above 300 nM.

As to `O=C1CCC(c2c(F)cc(N3CC(OC(=O)NCC4CCCCC4)C3)cc2F)C(=O)N1` (centres unmarked) [Compound 127, 1-(4-(2,6-dioxopiperidin-3-yl)-3,5-difluorophenyl)azetidin-3-yl(cyclohexylmethyl) carbamate], the IC50 in assay [1] lay within 100 to 1000 nM. In assay [2], the DC50 is at most 30 nM.

Turning to `O=C1CCC(c2c(F)cc(N3CC(OC(=O)N[C@H]4C[C@H](c5ccccc5)C4)C3)cc2F)C(=O)N1` (stereo partly drawn) [Compound 128, 1-(4-(2,6-dioxopiperidin-3-yl)-3,5-difluorophenyl)azetidin-3-yl((1R,3R)-3 phenylcyclobutyl) carbamate], in assay [1], the IC50 was in the range of 100 to 1000 nM. For the same compound, in assay [2], the DC50 is at most 30 nM.

Consider `C[C@@H](NC(=O)OC1CN(c2cc(F)c(C3CCC(=O)NC3=O)c(F)c2)C1)C1CCCCC1` (stereo partly drawn) [Compound 129, 1-(4-(2,6-dioxopiperidin-3-yl)-3,5-difluorophenyl)azetidin-3-yl ((R)-1-cyclohexylethyl)carbamate], for which the IC50 in assay [1] is at most 100 nM. Moreover, the DC50 in assay [2] was in the range of 30 to 300 nM.

Consider `C[C@H](NC(=O)OC1CN(c2cc(F)c(C3CCC(=O)NC3=O)c(F)c2)C1)c1ccccc1` (stereo partly drawn) [Compound 130, 1-(4-(2,6-dioxopiperidin-3-yl)-3,5-difluorophenyl)azetidin-3-yl((S)-1-phenylethyl) carbamate], for which, in assay [1], the IC50 was in the range of 100 to 1000 nM. Moreover, in assay [2], the DC50 is above 300 nM.

For `CCCCNC(=O)OC1CN(c2cc(F)c(C3CCC(=O)NC3=O)c(F)c2)C1` (centres unmarked) [Compound 131, 1-(4-(2,6-dioxopiperidin-3-yl)-3,5-difluorophenyl)azetidin-3-yl butylcarbamate], the IC50 in assay [1] was 100 to 1000 nM. For the same compound, the DC50 in assay [2] lay within 30 to 300 nM.

Regarding `CC(C)CNC(=O)OC1CN(c2cc(F)c(C3CCC(=O)NC3=O)c(F)c2)C1` (centres unmarked) [Compound 132, 1-(4-(2,6-dioxopiperidin-3-yl)-3,5-difluorophenyl)azetidin-3-yl isobutylcarbamate], the IC50 in assay [1] lay within 100 to 1000 nM. Besides, the half-maximal degradation concentration (DC50) in assay [2] is above 300 nM.
